US11840499B2, “Biobased-fatty acid arginates” (priority 2020, dated 2023)
Read-outs that look alike come from different tables or passages of the source.

Columns and labels:
[1] = test system: Gram-positive Listeria innocua (ATCC 33090); assay: Antimicrobial activity (MIC/MBC) against Listeria innocua; type: cell-based
Description: (§1) Antimicrobial activity studies were performed using standard methods. For all compounds, at least 3 independent replicates of quadruplicate tests were conducted. The minimum inhibitory concentration (MIC) was determined as the lowest test compound concentration for which no color change (no active growth) occurred. Minimum bactericidal concentration (MBC) was determined by spreading 100 μl from each growth-negative well onto TSA and incubating at 37° C. for 24 h. MBC was the […] where no viable growth occurred.

[2] = test system: Gram-negative Escherichia coli (ATCC 700728); assay: microbe, parasite or virus in culture; type: cell-based; settings: for MIC / MBC: E. coli; for MIC: lowest concentration with no color change (no active growth); for MBC: no viable growth on TSA, 37° C., 24 h
Description: as §1

[3] = Surfactant properties: surface tension by drop image method, CMC; type: physicochemical; settings: aqueous solution
Description: Samples of the analyte were weighed and dissolved in distilled water to make a 10 mM stock solution. The stock solution was then subsequently diluted to make 5 mM, 1 mM, 0.5 mM, 0.25 mM, 0.125 mM, and 0.0625 mM solutions. The series of solutions were used to measure the surface tension using a drop image method with a surface tension instrument. Measurement for each sample was done in triplicate and the average value was calculated. Critical micelle concentration (CMC) is the concentration above which micelles form in the surfactant solution.

[4] = L. innocua, lowest concentration with no color change (no active growth)
[5] = L. innocua, no viable growth on TSA, 37° C., 24 h
[6] = Listeria innocua, ATCC33090, 24 h
[7] = Escherichia coli, ATCC700728, read-out: MIC
[8] = Escherichia coli, ATCC700728, read-out: MBC

| Molecule | MIC [1, 4] [ppm] | MBC [1, 5] [ppm] | MIC [2, 7] [µg/mL] | MBC [2, 8] [µg/mL] | MIC [2] [ppm] | MBC [2] [ppm] | further results |
| --- | --- | --- | --- | --- | --- | --- | --- |
| N=C(N)NCCC[C@H](N)C(=O)O [L-arginine (commercial), L-arginine] | >232.7 | >232.7 | > 233 | > 233 |  |  | MIC ([1]; Listeria innocua, ATCC33090): > 233 µg/mL; MBC [1, 6]: > 233 µg/mL |
| CCOC(=O)[C@@H](N)CCCNC(=N)N.Cl.Cl [L-arginine ethyl ester dihydrochloride] |  |  | > 233 | > 233 |  |  | MIC ([1]; Listeria innocua, ATCC33090): > 233 µg/mL; MBC [1, 6]: > 233 µg/mL |
| CCCCCCCC/C=C\CCCCCCCC(=O)N[C@@H](CCCNC(=N)N)C(=O)OCC [Oleic arginate] | 3.6 | 3.6 |  |  | 116.4 | 116.4 | antimicrobial activity (in words) ([2]; Escherichia coli (ATCC 700728)): weak activity |
| Oleic phenol arginate | 1.2 | 5.0 |  |  | >232.7 | >232.7 |  |
| Isooleic acid | >232.7 | >232.7 |  |  | >232.7 | >232.7 |  |
| CCCCCCCCCCCCOS(=O)(=O)[O-].[Na+] [SDS] |  |  |  |  |  |  | critical micelle concentration (CMC), compared to LAE [3]: much higher; surface tension level reached with increasing surfactant concentration ([3]; 0.0625-10 mM): 38 mN/m |
| Soy thymol arginate | 3.6 | 14.5 |  |  | >232.7 | >232.7 |  |
| CCCCCCCCCCCCCCCCCC(=O)N[C@@H](CCCNC(=N)N)C(=O)OCC [Stearic arginate] | 14.5 | 29.1 |  |  | >232.7 | >232.7 |  |
| CCCCCCCC/C=C\CCCCCCCC(=O)O [Oleic acid] | >232.7 | >232.7 | > 233 | > 233 |  |  | MIC ([1]; Listeria innocua, ATCC33090): > 233 µg/mL; MBC [1, 6]: > 233 µg/mL |
| CCCCCCCCCCCC(=O)N[C@@H](CCCNC(=N)N)C(=O)OCC.Cl [Ethyl lauroyl arginate, ethyl-N^α-lauroyl-L-arginate HCl, reference compound] |  |  | 7.3 | 7.3 |  |  | MIC ([1]; Listeria innocua, ATCC33090, L. innocua, lowest concentration with no color change (no active growth), read-out: MIC): 7.3 µg/mL; MBC ([1]; Listeria innocua, ATCC33090, L. innocua, no viable growth on TSA, 37° C., 24 h, read-out: MBC): 14.5 µg/mL |
| Isostearic arginate | 3.6 | 7.3 |  |  | >232.7 | >232.7 |  |
| Isooleic arginate | 1.8 | 1.8 |  |  | >232.7 | >232.7 |  |
